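All cell lines were grown in 96-well plates and treated with compound for 48 hours. GI50 = concentration required for 50% inhibition of growth.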 Activity calls are given as the source filed them. Cut-off read from the data, not from the text of the source: active = GI50 up to about 1.1 µM and inactive = higher.
What was measured:
Assay in all cases: DTP human tumour cell line panel, 48 h
SF-295 = tested on: SF-295
LOX IMVI = tested on: LOX IMVI
HT-29 = tested on: HT-29
NCI-H522 = tested on: NCI-H522
HCT-15 = tested on: HCT-15
SF-268 = tested on: SF-268
EKVX = tested on: EKVX
HL-60 = tested on: HL-60
IGROV-1 = tested on: IGROV-1
KM12 = tested on: KM12
SNB-75 = tested on: SNB-75
UO-31 = tested on: UO-31
OVCAR-5 = tested on: OVCAR-5
T47D = tested on: T47D
SW-620 = tested on: SW-620
SR = tested on: SR
SK-MEL-28 = tested on: SK-MEL-28
HCC 2998 = tested on: HCC 2998
HOP-92 = tested on: HOP-92
A549 = tested on: A549

SMILES | GI50 (SF-295) | GI50 (LOX IMVI) | GI50 (HT-29) | GI50 (NCI-H522) | GI50 (HCT-15) | GI50 (SF-268) | GI50 (EKVX) | GI50 (HL-60) | GI50 (IGROV-1) | GI50 (KM12) | GI50 (SNB-75) | GI50 (UO-31) | GI50 (OVCAR-5) | GI50 (T47D) | GI50 (SW-620) | GI50 (SR) | GI50 (SK-MEL-28) | GI50 (HCC 2998) | GI50 (HOP-92) | GI50 (A549)
O=C1NC(=S)N/C1=C\c1cc2c(=O)c3ccccc3sc2s1 | 70.5 µM (inactive) | 59.7 µM (inactive) | 55.1 µM (inactive) | 71 µM (inactive) | > 100 µM | > 100 µM (inactive) | 3.51 µM (inactive) | 36.5 µM (inactive) | 40.7 µM (inactive) | > 100 µM (inactive) | 26.4 µM (inactive) | 58.5 µM (inactive) | > 100 µM (inactive) | > 100 µM (inactive) | 57.8 µM (inactive) | 22.8 µM (inactive) | 40.4 µM (inactive) | 71.1 µM (inactive) | – | –
NC(=O)Cc1ncn(-c2ccccc2)n1 | > 100 µM (inactive) | > 100 µM (inactive) | > 100 µM (inactive) | > 100 µM (inactive) | > 100 µM | > 100 µM (inactive) | > 100 µM (inactive) | > 100 µM (inactive) | > 100 µM (inactive) | > 100 µM (inactive) | > 100 µM (inactive) | > 100 µM (inactive) | > 100 µM (inactive) | > 100 µM (inactive) | > 100 µM (inactive) | > 100 µM (inactive) | – | – | > 100 µM (inactive) | > 100 µM (inactive)
Cc1ccc(N(C(=O)Nc2ccccc2)C2=NCC(C)S2)cc1C (stereo not given) | 24.4 µM (inactive) | 16.6 µM (inactive) | 18.2 µM (inactive) | – | 15.4 µM | 24 µM (inactive) | 17.9 µM (inactive) | 20.1 µM (inactive) | 22.4 µM (inactive) | 17.8 µM (inactive) | 24.4 µM (inactive) | 18.5 µM (inactive) | 23.1 µM (inactive) | 14.8 µM (inactive) | 24.7 µM (inactive) | 23.7 µM (inactive) | 17.5 µM (inactive) | > 10 µM (inactive) | 22.5 µM (inactive) | 29 µM (inactive)
CC(=O)NC1C(OCc2ccccc2)OC(CO)C(O)C1OCC(=O)NC(C)C(=O)NC(CCC(=O)NCCCCNc1ccc([N+](=O)[O-])c2[nH]c3ccccc3c(=O)c12)C(N)=O (stereo not given) | 34.6 µM (inactive) | > 100 µM (inactive) | 69.3 µM (inactive) | – | 65 µM | 38.8 µM (inactive) | 88.5 µM (inactive) | > 100 µM (inactive) | 56 µM (inactive) | 90.2 µM (inactive) | 43.9 µM (inactive) | > 100 µM (inactive) | > 100 µM (inactive) | > 100 µM (inactive) | > 100 µM (inactive) | 2.87 µM (inactive) | > 100 µM (inactive) | > 100 µM (inactive) | > 100 µM (inactive) | 50.1 µM (inactive)
Cc1ccc(NC(=O)C(=O)CC(=O)c2sc(Nc3c(C)cccc3C)nc2C)cc1C | > 100 µM (inactive) | > 100 µM (inactive) | > 100 µM (inactive) | 71.4 µM (inactive) | > 100 µM | > 100 µM (inactive) | > 100 µM (inactive) | 55.2 µM (inactive) | > 100 µM (inactive) | > 100 µM (inactive) | – | 81.8 µM (inactive) | > 100 µM (inactive) | > 100 µM (inactive) | > 100 µM (inactive) | 37.3 µM (inactive) | > 100 µM (inactive) | > 100 µM (inactive) | > 100 µM (inactive) | > 100 µM (inactive)
N=C(N)n1nc2c(c1O)CCCC2 | > 100 µM (inactive) | > 100 µM (inactive) | > 100 µM (inactive) | > 100 µM (inactive) | > 100 µM | > 100 µM (inactive) | > 100 µM (inactive) | > 100 µM (inactive) | 65.2 µM (inactive) | > 100 µM (inactive) | 14.5 µM (inactive) | > 100 µM (inactive) | > 100 µM (inactive) | > 100 µM (inactive) | > 100 µM (inactive) | > 100 µM (inactive) | > 100 µM (inactive) | > 100 µM (inactive) | – | > 100 µM (inactive)
O=c1c2c([N+](=O)[O-])cccc2nc2[nH]c3ccccc3n12 | 23.1 µM (inactive) | 32.8 µM (inactive) | 63.2 µM (inactive) | – | 53.6 µM | 18.7 µM (inactive) | 30.2 µM (inactive) | > 75 µM (inactive) | 11.9 µM (inactive) | 32.4 µM (inactive) | – | – | > 75 µM (inactive) | 15 µM (inactive) | > 75 µM (inactive) | 54.2 µM (inactive) | > 75 µM (inactive) | 19.3 µM (inactive) | 19.8 µM (inactive) | 40.3 µM (inactive)
c1ccc(C2=C(c3ccccc3)P(c3ccccc3)C2)cc1 (stereo not given) | 41 µM (inactive) | – | > 100 µM (inactive) | 47.6 µM (inactive) | > 100 µM | > 100 µM (inactive) | – | – | 64.3 µM (inactive) | 49.7 µM (inactive) | 32.7 µM (inactive) | – | > 100 µM (inactive) | > 100 µM (inactive) | 64 µM (inactive) | 22.8 µM (inactive) | > 100 µM (inactive) | > 100 µM (inactive) | > 100 µM (inactive) | 43.4 µM (inactive)
CCOc1ccccc1N1CSc2nnc(-c3ccccc3)n2C1 | > 100 µM (inactive) | – | 73.3 µM (inactive) | > 100 µM (inactive) | > 100 µM | > 100 µM (inactive) | – | – | > 100 µM (inactive) | > 100 µM (inactive) | – | > 100 µM (inactive) | > 100 µM (inactive) | > 100 µM (inactive) | 49 µM (inactive) | 44.4 µM (inactive) | > 100 µM (inactive) | > 100 µM (inactive) | > 100 µM (inactive) | > 100 µM (inactive)
CC(=O)Nn1c(=S)[nH]c2ccccc21 | > 100 µM (inactive) | > 100 µM (inactive) | > 100 µM (inactive) | > 100 µM (inactive) | > 100 µM | > 100 µM (inactive) | > 100 µM (inactive) | > 100 µM (inactive) | > 100 µM (inactive) | > 100 µM (inactive) | – | > 100 µM (inactive) | > 100 µM (inactive) | > 100 µM (inactive) | > 100 µM (inactive) | > 100 µM (inactive) | > 100 µM (inactive) | > 100 µM (inactive) | > 100 µM (inactive) | > 100 µM (inactive)
CC(=O)Nc1ccccc1NC1CC(C)N(c2ccccc2)N1C(C)=O (stereo not given) | > 10 µM (inactive) | – | > 10 µM (inactive) | – | > 10 µM | > 10 µM (inactive) | > 10 µM (inactive) | > 10 µM (inactive) | > 10 µM (inactive) | > 10 µM (inactive) | > 10 µM (inactive) | – | – | > 10 µM (inactive) | > 10 µM (inactive) | > 10 µM (inactive) | > 10 µM (inactive) | > 10 µM (inactive) | > 10 µM (inactive) | > 10 µM (inactive)
COc1cc(C2c3cccc4cccc(c34)C3CCC(=O)N32)cc(O)c1O (stereo not given) | 39.9 µM (inactive) | – | 48.1 µM (inactive) | – | 23.7 µM | – | 26.7 µM (inactive) | 14.6 µM (inactive) | 26.9 µM (inactive) | > 50 µM (inactive) | > 50 µM (inactive) | 28.8 µM (inactive) | > 50 µM (inactive) | 29.9 µM (inactive) | 28.6 µM (inactive) | 9.71 µM (inactive) | 33.5 µM (inactive) | – | > 50 µM (inactive) | 31.2 µM (inactive)
CCCCCCNCCc1c[nH]cn1 | > 100 µM (inactive) | > 100 µM (inactive) | > 100 µM (inactive) | > 100 µM (inactive) | > 100 µM | > 100 µM (inactive) | > 100 µM (inactive) | – | > 100 µM (inactive) | > 100 µM (inactive) | > 100 µM (inactive) | > 100 µM (inactive) | > 100 µM (inactive) | > 100 µM (inactive) | > 100 µM (inactive) | > 100 µM (inactive) | > 100 µM (inactive) | > 100 µM (inactive) | > 100 µM (inactive) | > 100 µM (inactive)
Cc1onc(-c2c(F)cccc2Cl)c1C(=O)N[C@@H]1C(=O)N2[C@@H]1SC(C)(C)[C@@H]2C(=O)O | > 100 µM (inactive) | – | > 100 µM (inactive) | > 100 µM (inactive) | > 100 µM | > 100 µM (inactive) | > 100 µM (inactive) | – | > 100 µM (inactive) | > 100 µM (inactive) | > 100 µM (inactive) | 24.5 µM (inactive) | > 100 µM (inactive) | > 100 µM (inactive) | > 100 µM (inactive) | > 100 µM (inactive) | > 100 µM (inactive) | – | > 100 µM (inactive) | > 100 µM (inactive)
COc1c(CC=C(C)C)c(O)c(C(CC(C)C)c2c(O)c(C(C)=O)c(O)c3c2OC(C(C)(C)O)C3)c(O)c1C(C)=O (stereo not given) [ACROFOLIONE A] | – | 4.38 µM (inactive) | 4.71 µM (inactive) | 3.39 µM (inactive) | 3.86 µM | 5.33 µM (inactive) | 4.51 µM (inactive) | 1.97 µM (inactive) | 3.65 µM (inactive) | – | – | 4.16 µM (inactive) | 5.38 µM (inactive) | 3.21 µM (inactive) | 6.25 µM (inactive) | 2.82 µM (inactive) | 9.18 µM (inactive) | 4.46 µM (inactive) | 1.85 µM (inactive) | 7.96 µM (inactive)

Reference: ChEMBL document CHEMBL1201862, “PubChem BioAssay data set” (2004)
